Values of other authors, collected in US20170259275A1, “PROCESS FOR SEPARATING AMINO AND/OR ORGANIC ACID-CONTAINING PARTICLES FROM A MIXTURE” (Sanovations B.V., priority 2014, published 2017).

Assays:
[1] = solid, crystalline form
[2] = 25° C., water

SMILES	Crystal Density [1] [g/mL]	Aqueous Solubility [2] [g/100 g]
N[C@@H](CCC(=O)O)C(=O)O [Glutamic Acid]	1.566	–
C[C@H](N)C(=O)O [Alanine]	1.371	16.65
CC[C@H](C)[C@H](N)C(=O)O [Isoleucine]	1.201	4.117
NCC(=O)O [Glycine]	1.598	–
N[C@@H](CS)C(=O)O [Cysteine]	1.495	28
N[C@@H](Cc1c[nH]cn1)C(=O)O [Histidine]	1.412	4.19
N[C@@H](CC(=O)O)C(=O)O [Aspartic Acid]	1.636	–
CC(C)C[C@H](N)C(=O)O [Leucine]	–	2.426
NC(=O)C[C@H](N)C(=O)O [Asparagine]	–	3.53
NCCCC[C@H](N)C(=O)O [Lysine]	1.237	30
NC(=O)CC[C@H](N)C(=O)O [Glutamine]	–	2.5
N=C(N)NCCC[C@H](N)C(=O)O [Arginine]	1.325	–
N[C@@H](Cc1c[nH]c2ccccc12)C(=O)O [Tryptophan]	1.303	1.136

Other lines, results leading:

Crystal Density [1] [g/mL]	Aqueous Solubility [2] [g/100 g]	SMILES
1.311	3.381	CSCC[C@H](N)C(=O)O [Methionine]
1.267	8.85	CC(C)[C@H](N)C(=O)O [Valine]
1.315	2.965	N[C@@H](Cc1ccccc1)C(=O)O [Phenylalanine]
1.499	–	C[C@@H](O)[C@H](N)C(=O)O [Threonine]
1.582	–	N[C@@H](CO)C(=O)O [Serine]
1.376	–	O=C(O)[C@@H]1CCCN1 [Proline]
1.403	–	N[C@@H](Cc1ccc(O)cc1)C(=O)O [Tyrosine]
